Values joined by “and” are separate entries in the source; they are usually repeats but may differ in a detail not shown here. Identical values can stand only once.
Tests used:
[1] = target: T1, Human CysLT1 (LTD4) (Homo sapiens, UniProt Q9Y271); experiment: Human CysLT1 (LTD4) antagonist effect cellular functional assay (Ca2+ fluorescence, Eurofins Cerep-Panlabs); format: cell-based; details: antagonist effect, 0.1 nM LTD4; read-out: CysLT1R IC50
T1 construct: Eurofins Cerep-Panlabs (France), contract assay
T1 sequence (Q9Y271 1-337): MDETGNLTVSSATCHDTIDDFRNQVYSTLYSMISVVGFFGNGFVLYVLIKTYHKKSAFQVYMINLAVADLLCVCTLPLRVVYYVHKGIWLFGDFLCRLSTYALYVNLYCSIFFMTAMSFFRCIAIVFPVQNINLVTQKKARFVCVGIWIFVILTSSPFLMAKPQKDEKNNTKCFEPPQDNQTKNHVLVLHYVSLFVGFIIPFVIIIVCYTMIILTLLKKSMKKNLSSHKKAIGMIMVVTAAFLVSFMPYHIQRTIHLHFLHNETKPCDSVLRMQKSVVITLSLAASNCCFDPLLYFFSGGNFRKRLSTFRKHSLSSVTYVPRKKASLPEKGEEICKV
Procedure: Human CysLT1 (LTD4) (h) (antagonist effect) Cellular Functional Assay. These assays were performed at Eurofins Cerep-Panlabs (France). The cells were suspended in DMEM buffer (Invitrogen) and then distributed in microplates at a density of 3.104 cells/well. […] Thereafter, the assay plates are positioned in a microplate reader (CellLux, PerkinElmer), which was used for the addition of the test compound or HBSS buffer, then 5 min later, 0.1 nM LTD4 or HBSS buffer (basal control), and measured the changes in fluorescence intensity, which varies proportionally to the free cytosolic Ca^2+-ion concentration.

[2] = Metabolic stability in liver S9 fraction; format: in vitro ADME
Procedure: (§1) Metabolic Stability. All compounds were tested at the final concentration of 1 µM in a 50 mM potassium phosphate buffer (pH 7.4) containing 1% DMSO as vehicle. For microsomes assay, the incubation mixtures contained 0.15 mg of Human liver microsomes (Sigma-Aldrich, St. Louis, MO, United States), 5 mM MgCl2, 1 mM NADPH, 5 mM glucose 6-phosphate, 0.4 U mL^−1 glucose 6-phosphate dehydrogenase. For S9 fraction analysis, the buffer contained 0.15 mg of S9 proteins (Sigma-Aldrich, St. Louis, MO, United States), 0.3 mM NADPH, 5.6 mM glucose-6-phosphate, 0.6 units/mL glucose-6-phosphate dehydrogenase, 5.8 mM UDP-glucuronic acid, 0.05 mM acetyl-CoA, 0.5 mM dithiothreitol, 0.5 mM 3′-phosphoadenosine 5′-phosphosulfate, 1 mM glutathione, 0.2 mM acetyl carnitine, 4 units/mL carnitine acetyl transferase, 0.5 mM glycine, and 0.5 mM taurine.
Samples were kept at 37°C and aliquots were removed at 0, 5, 15, 30, 45, 60, 90, 120, 150 min after protein additions. The reaction was stopped by adding 200 µL of ice-cold acetonitrile to withdrawn aliquots. After 2 h, samples were centrifuged for 10 min at 10,000 rpm, and supernatants were subjected to LC-MS/MS analysis. […]
In vitro intrinsic clearance (Clint expressed as µL/min/mg) was calculated according to the following formula: Clint = Vx 0.693/t1/2 were V = volume of reaction (µL)/protein in the incubation (mg). […]

[3] = In vivo stability: amount of compound 2 in plasma of mice; details: 30 mg/kg
Procedure: The amount of compound 2 in plasma samples of animals treated with compound 2 was evaluated measuring the peak area of the compound at 1, 6, and 24 h after administration. 50 μL of plasma samples were mixed with 200 μL of acetonitrile, vortexed and incubated for 1 h on ice. Samples were then centrifuged for 10 min at 10,000 rpm and supernatants were evaporated to dryness. For LC/MS-MS analysis a QTRAP 6500 System (AB Sciex) equipped with Shimadzu LC-20A LC and AutoSampler was employed. […] The transition 356 →143 was employed for quantification. The following parameters were set: positive mode, DP 120 eV, EP 12 eV, CE 40 eV, CXP 23 V, CUR 30 psi, CAD Medium, IS 5500 V, TEM 350°C, GS1 and GS2 50 psi.
Given the promising results obtained during in vitro pharmacokinetics studies, the profile of disappearance of compound 2 was also evaluated in vivo. Mice were treated with compound 2 and plasma samples withdrawn 1, 6, and 24 h after administration were analyzed by LC-MSMS to evaluate the concentration of compound 2.

[4] = Metabolic stability in human liver microsomes; format: in vitro ADME
Procedure: as §1
Samples were kept at 37°C and aliquots were removed at 0, 5, 15, 30, 45, 60, 90, 120, 150 min after protein additions. The reaction was stopped by adding 200 µL of ice-cold acetonitrile to withdrawn aliquots. After 2 h, samples were centrifuged for 10 min at 10,000 rpm, and supernatants were subjected to LC-MS/MS analysis.
The slope of the linear regression of the curve obtained reporting the natural logarithm of compound area versus incubation time (−k) was used in the conversion to in vitro t1/2 values by t1/2 = […].
In vitro intrinsic clearance (Clint expressed as µL/min/mg) was calculated according to the following formula: Clint = Vx 0.693/t1/2 were V = volume of reaction (µL)/protein in the incubation (mg). Testosterone was used as a positive control for microsome and phase I enzymes, and 7-hydroxycoumarin was used as positive control for phase II enzymes.

[5] = target: T2, human GPBAR1 (Homo sapiens, UniProt Q8TDU6); experiment: GPBAR1 CRE-luciferase reporter transactivation assay in HEK-293T cells; format: cell-based; details: HEK293T cells
T2 construct: expressed in transfected cells; host or cells: HEK-293T cells, transient transfection (Fugene HD)
T2 sequence (Q8TDU6 1-330): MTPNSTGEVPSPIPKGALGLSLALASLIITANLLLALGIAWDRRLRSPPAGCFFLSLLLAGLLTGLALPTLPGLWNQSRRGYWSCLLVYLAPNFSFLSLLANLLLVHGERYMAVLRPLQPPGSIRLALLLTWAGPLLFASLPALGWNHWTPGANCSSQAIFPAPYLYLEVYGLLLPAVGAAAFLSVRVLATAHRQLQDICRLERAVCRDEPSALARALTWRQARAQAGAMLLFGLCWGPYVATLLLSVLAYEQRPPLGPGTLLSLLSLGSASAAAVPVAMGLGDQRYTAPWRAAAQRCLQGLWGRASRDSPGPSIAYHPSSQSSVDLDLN
Procedure: GPBAR1. […] At 18 h post stimulations, cellular lysates were assayed for luciferase and Renilla activities using the Dual-Luciferase Reporter assay system (E1980, Promega Madison WI). Luminescence was measured using Glomax 20/20 luminometer (Promega, Madison WI). Luciferase activities were normalized with Renilla activities.
Agonistic activities of compounds on GPBAR1 were compared to TLCA, which was set as 100%.

IC50 [1]: 5.6 µM and 5.67 µM
microsomal CLint at 1 µM ([2]; pH 7.4): 6 µL/min/mg
half-life at 1 µM ([2]; pH 7.4, read-out: S9 fraction t1/2): 385 min
compound remaining in plasma ([3]; 24 h after administration): approximately 20%
stability to Phase I enzymes contained in microsomal fraction [4]: highly stable
microsomal CLint at 1 µM ([4]; pH 7.4, human liver microsomes, 1 µM): 4 µL/min/mg
half-life at 1 µM ([4]; pH 7.4, human liver microsomes, 1 µM, read-out: Microsomes t1/2): 578 min
EC50 ([5]; CRE luciferase): 4.6 ± 1.5 µM
Emax ([5]; HEK-293T, compound 10 µM relative to TLCA (10 μM) as 100, CRE transactivation, read-out: GPBAR1 Eff (%) maximum efficacy): 82 ± 1.2%
Compound: O=C(O)c1cccc(-c2ccc(OCc3ccc4ccccc4n3)cc2)c1 [Compound 2, 4'-(quinolin-2-ylmethoxy)-[1,1′-biphenyl]-3-carboxylic acid]
compound remaining in plasma ([3]; 6 h after administration): considerable percentage of compound 2 is still present
